Results taken from US9066922B2, “Pharmaceutical composition for the treatment or prevention of diseases involving obesity, diabetes, metabolic syndrome, neuro-degenerative diseases and mitochondria dysfunction diseases” (MD BIOALPHA CO., LTD., priority 2005, dated 2015).

Experiments:
[1] = tested on: transcripts of Sirtuin (SIRT) genes; experiment: Expression of SIRT-related transcripts in DIO mice; assay type: in vivo, C57BL/6 mice; conditions: 50 mg/kg daily oral, gonadal adipose tissues, days 7, 28 and 56
Protocol: β-lapachone was administered daily to diet-induced obesity (DIO) mice at a dose of 50 mg/kg via an oral route, and levels of transcripts of Sirtuin (SIRT) (36,37) genes in gonadal adipose tissues were measured on days 7, 28 and 56 of administration, respectively, using real-time quantitative PCR. Referring to SIRT-related transcripts shown in FIG. 12, there are known 7 species of transcripts in humans.

[2] = tested on: diet-induced obesity (DIO) C57BL/6 mice; experiment: Body weight, dietary intake, fat, blood parameters and histology in diet-induced obesity (DIO) C57BL/6 mice; assay type: in vivo
Description: FIGS. 16A through 16C show whole laparotomized states of animals after administration of β-lapachone to DIO C57BL/6 mice for 56 days and results of oil red O staining and EM examination on fat accumulation in liver tissues. […] In order to confirm improvement in condition of fatty liver in FIG. 16, accumulated fat in the liver was stained using oil red O staining and as a result, it was confirmed that fat has diminished by 90% or more, as compared to a control group.
Referring to FIG. 17, after daily administration of β-lapachone to DIO C57BL/6 mice at a dose of 50 mg/kg via an oral route, animals were laparotomized on day 56 of β-lapachone administration and perilipin staining was performed on gonadal adipose tissues.
Referring to FIG. 19, after daily administration of β-lapachone to DIO C57BL/6 mice at a dose of 50 mg/kg via an oral route, H&E staining of brown adipose tissues was performed on day 56 of administration.

[3] = tested on: Sprague-Dawley rats; experiment: Acute toxicity test, oral administration; assay type: in vivo; conditions: oral, 50, 100 and 200 mg/kg, observed for 2 weeks
[4] = tested on: AMPK; experiment: Determination of AMPK activation in C2C12 myoblast cells (SAMS peptide, [γ-32P]ATP); assay type: cell-based; conditions: differentiated C2C12 myoblast cells, 5 μg/ml, compared with control (DMSO 0.5% = 1)
Protocol: Myoblast cells, C2C12, were cultured in DMEM containing 10% bovine calf serum. When a cell density reached a range of about 85% to 90%, the culture medium was replaced with a medium containing 1% bovine calf serum to induce differentiation of cells. The thus-differentiated myoblast cells were treated with samples synthesized in Examples 1 through 29 at a concentration of 5 μg/ml, and compared with a control group. Enzymatic activity of AMPK was determined as follows. Firstly, C2C12 cells were lysed to obtain protein extracts and then ammonium sulfate was added to a final concentration of 30%, thereby precipitating proteins. Protein precipitates were dissolved in a buffer (62.5 mM Hepes, pH 7.2, 62.5 mM NaCl, 62.5 mM NaF, 1.25 mM Na pyrophosphate, 1.25 mM EDTA, 1 mM DTT, 0.1 mM PMSF, and 200 μM AMP). Thereafter, 200 μM SAMS peptide (HMRSAMSGLHLVKRR: the underlined serine residue is a phosphorylation site, as an AMPK phosphorylation site of acetyl-CoA carboxylase) and [γ-32P]ATP were added thereto and reactants were reacted for 10 minutes at 30° C. This was followed by spotting of the resulting reaction solution on p81 phosphocellulose paper. The p81 paper was washed with a 3% phosphoric acid solution and radioactivity thereof was measured. For each reaction condition, reactions involving no SAMS peptide were also conducted and basic values were subtracted from the thus-observed values.

[5] = tested on: AMP kinase; experiment: Phosphorylation of AMPK by β-lapachone in HepG2 cells; assay type: cell-based, Human; conditions: 10 μM, 30 min to 6 hr
Protocol: This example was carried out to confirm whether β-lapachone (Compound 1) has effects on phosphorylation of AMPK and ACC, which are intracellular energy-regulating proteins. In order to examine phosphorylation of AMP kinase and ACC (acetyl-CoA carboxylase) by β-lapachone, HepG2 cells (Human hepatocellular liver carcinoma cell line) were seeded onto a 6-well plate at a density of 1×10^5 cells per well, and cultured in a RPMI+10% FBS medium. After growing the cells for 24 hours, the culture medium was replaced with a serum-free RPMI medium, and cells were treated with β-lapachone (10 μM) for 30 min, 1 hr, 2 hr, 4 hr and 6 hr, respectively, in combination with a control (DMSO). Anti-ACC and Anti-pS79-ACC were used in order to observe phosphorylated ACC, whereas Anti-AMPK and Anti-pT172-AMPK were used in order to observe phosphorylated AMP kinase, respectively.

[6] = DIO C57BL/6 mice, 56 days, vs control group
[7] = DIO mice, 50 mg/kg daily oral, day 56
[8] = DIO mice, 50 mg/kg daily oral, days 3, 7, 14, 28 and 56

CC1(C)CCC2=C(O1)c1ccccc1C(=O)C2=O [Compound 1, β-Lapachone]
SIRT2 transcript level [1]: did not exhibit any noticeable difference
SIRT3 transcript level [1]: significantly increased
SIRT5 transcript level [1]: did not exhibit any noticeable difference
SIRT6 transcript level [1]: significantly increased
SIRT7 transcript level [1]: did not exhibit any noticeable difference
SITR1 transcript level [1]: significantly increased
visceral fat and body weight (laparotomized state) ([2]; DIO C57BL/6 mice, 56 days): conspicuous decreases in visceral fat and body weight
EM examination on liver tissues: fat vacuoles and glycogen stores [2, 6]: remarkably decreased fat vacuoles and glycogen stores
EM examination on liver tissues: mitochondrial numbers [2, 6]: significant increases in mitochondrial numbers
decrease of accumulated fat in the liver (oil red O staining) [2, 6]: ≥ 90%
weight changes in various organs [2, 6]: significant changes in weight of tissues
body weight ([2]; DIO mice on high-fat diet, 50 mg/kg daily oral, 56 days, vs control group): continuous weight loss for 56 days
dietary intake ([2]; DIO mice, 50 mg/kg daily oral, 56 days): decreases in dietary intake for first two weeks
size of adipocytes in brown adipose tissue (EM examination) [2, 7]: remarkably decreased
size of adipocytes in brown adipose tissues (H&E staining) [2, 7]: remarkably decreased
size of adipocytes in gonadal adipose tissues (perilipin staining) [2, 7]: remarkably decreased
blood fat and glucose levels [2, 8]: significantly improved
blood level of resistin [2, 8]: significantly improved
insulin resistance and leptin resistance [2, 8]: also improved
mortality [3]: none of the animals died
AMPK fold [4]: 2.2 fold
phosphorylation of AMP kinase (Anti-pT172-AMPK), onset [5]: could be observed from the initial time (30 min)
phosphorylation of AMP kinase, duration of effect [5]: lasted up to 6 hours
